From PubChem BioAssay (NCI)
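Briefly, cells in 96-well plates were exposed to five compound concentrations for 48 h, and endpoints were estimated by linear interpolation. The concentration for 50% growth inhibition is given as GI50. TGI marks complete inhibition of growth.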

Assays:
Test in all cases: NCI tumour cell line growth inhibition, 48 h
[1] = test system: 786-0 renal
[2] = test system: A498 renal
[3] = test system: A549 NSCLC
[4] = test system: ACHN renal
[5] = test system: BT-549 breast
[6] = test system: CAKI-1 renal
[7] = test system: CCRF-CEM leukemia
[8] = test system: COLO 205 colon
[9] = test system: DU-145 prostate
[10] = test system: EKVX NSCLC
[11] = test system: HCC-2998 colon
[12] = test system: HCT-116 colon
[13] = test system: HCT-15 colon
[14] = test system: HL-60(TB) leukemia
[15] = test system: HOP-62 NSCLC
[16] = test system: HOP-92 NSCLC
[17] = test system: HS 578T breast
[18] = test system: HT29 colon
[19] = test system: IGROV1 ovarian
[20] = test system: K-562 leukemia
[21] = test system: KM12 colon
[22] = test system: M14 melanoma
[23] = test system: MALME-3M melanoma
[24] = test system: MCF7 breast
[25] = test system: MDA-MB-231 breast
[26] = test system: MDA-MB-435
[27] = test system: MOLT-4 leukemia
[28] = test system: NCI-H226 lung
[29] = test system: NCI-H460 lung
[30] = test system: NCI-H522 lung
[31] = test system: NCI/ADR-RES ovarian
[32] = test system: OVCAR-3 ovarian
[33] = test system: OVCAR-4 ovarian
[34] = test system: OVCAR-5 ovarian
[35] = test system: OVCAR-8 ovarian
[36] = test system: PC-3 prostate
[37] = test system: RPMI-8226 leukemia
[38] = test system: RXF 393 renal
[39] = test system: SF-268 CNS
[40] = test system: SF-295 CNS
[41] = test system: SF-539 CNS
[42] = test system: SK-MEL-2 melanoma
[43] = test system: SK-MEL-28 melanoma
[44] = test system: SK-MEL-5 melanoma
[45] = test system: SK-OV-3 ovarian
[46] = test system: SN12C renal
[47] = test system: SNB-19 CNS
[48] = test system: SNB-75 CNS
[49] = test system: SR leukemia
[50] = test system: SW-620 colon
[51] = test system: T-47D breast
[52] = test system: TK-10 renal
[53] = test system: U251 CNS
[54] = test system: UACC-257 melanoma
[55] = test system: UACC-62 melanoma
[56] = test system: UO-31 renal

For `C=C(C)[C@@H]1CC[C@]2(COC)CC[C@]3(C)[C@H](CC[C@@H]4[C@@]5(C)CCCNC(C)(C)[C@@H]5CC[C@]43C)[C@@H]12`, the GI50 [1] was 1750 nM, the TGI [1] was 3480 nM and the GI50 [2] was 1660 nM. For the same compound, the TGI [2] was 3110 nM, the GI50 [3] was 1600 nM and the TGI [3] was 3160 nM. It also gave a GI50 [4] of 1690 nM, a TGI [4] of 3080 nM and a GI50 [5] of 1750 nM. It also gave a TGI [5] of 3210 nM, a GI50 [6] of 1590 nM and a TGI [6] of 3070 nM. For the same compound, the GI50 [7] was 1240 nM, the TGI [7] was 2990 nM and the GI50 [8] was 1490 nM. The TGI [8] was 3220 nM, the GI50 [9] was 1770 nM and the TGI [9] was 3210 nM. The GI50 [10] was 1630 nM, the TGI [10] was 3140 nM and the GI50 [11] was 1260 nM. It also gave a TGI [11] of 2670 nM, a GI50 [12] of 1130 nM and a TGI [12] of 2590 nM. For the same compound, the GI50 [13] was 1430 nM, the TGI [13] was 2920 nM and the GI50 [14] was 1330 nM. The TGI [14] was 3510 nM, the GI50 [15] was 1950 nM and the TGI [15] was 3900 nM. For the same compound, the GI50 [16] was 1150 nM, the TGI [16] was 2470 nM and the GI50 [17] was 2530 nM. It also gave a TGI [17] of 5570 nM, a GI50 [18] of 562 nM and a TGI [18] of 2090 nM. For the same compound, the GI50 [19] was 1560 nM, the TGI [19] was 3010 nM and the GI50 [20] was 323 nM. For the same compound, the TGI [20] was 1660 nM, the GI50 [21] was 1820 nM and the TGI [21] was 3650 nM. For the same compound, the GI50 [22] was 1630 nM, the TGI [22] was 3340 nM and the GI50 [23] was 1420 nM. For the same compound, the TGI [23] was 3070 nM, the GI50 [24] was 301 nM and the TGI [24] was 2240 nM. For the same compound, the GI50 [25] was 1800 nM, the TGI [25] was 3380 nM and the GI50 [26] was 1610 nM. It also gave a TGI [26] of 3090 nM, a GI50 [27] of 1250 nM and a TGI [27] of 3490 nM. It also gave a GI50 [28] of 1930 nM, a TGI [28] of 3930 nM and a GI50 [29] of 1640 nM. For the same compound, the TGI [29] was 3500 nM, the GI50 [30] was 1730 nM and the TGI [30] was 3420 nM. The GI50 [31] was 1680 nM, the TGI [31] was 3400 nM and the GI50 [32] was 1900 nM. For the same compound, the TGI [32] was 3730 nM, the GI50 [33] was 1540 nM and the TGI [33] was 3000 nM. The GI50 [34] was 1660 nM, the TGI [34] was 3110 nM and the GI50 [35] was 1910 nM. The TGI [35] was 4000 nM, the GI50 [36] was 1260 nM and the TGI [36] was 2520 nM. The GI50 [37] was 1170 nM, the TGI [37] was 3430 nM and the GI50 [38] was 1550 nM. It also gave a TGI [38] of 2940 nM, a GI50 [39] of 1950 nM and a TGI [39] of 3850 nM. It also gave a GI50 [40] of 1780 nM, a TGI [40] of 3240 nM and a GI50 [41] of 1570 nM. The TGI [41] was 3020 nM, the GI50 [42] was 1840 nM and the TGI [42] was 3520 nM. For the same compound, the GI50 [43] was 1620 nM, the TGI [43] was 2990 nM and the GI50 [44] was 1590 nM. It also gave a TGI [44] of 3000 nM, a GI50 [45] of 1790 nM and a TGI [45] of 3320 nM. The GI50 [46] was 1570 nM, the TGI [46] was 3090 nM and the GI50 [47] was 1710 nM. For the same compound, the TGI [47] was 3130 nM, the GI50 [48] was 1750 nM and the TGI [48] was 3920 nM. It also gave a GI50 [49] of 481 nM, a TGI [49] of 2510 nM and a GI50 [50] of 1770 nM. It also gave a TGI [50] of 3710 nM, a GI50 [51] of 1180 nM and a TGI [51] of 2990 nM. For the same compound, the GI50 [52] was 1910 nM, the TGI [52] was 3520 nM and the GI50 [53] was 1550 nM. The TGI [53] was 3180 nM, the GI50 [54] was 1930 nM and the TGI [54] was 3760 nM. The GI50 [55] was 1680 nM, the TGI [55] was 3110 nM and the GI50 [56] was 1450 nM. The TGI [56] was 2780 nM.
